Assay results as given in US20250114415A1, “METHOD FOR LOWERING CHOLESTEROL AND LIPID LEVELS USING THE ANTRODIA CINNAMOMEA WATER-INSOLUBLE DIETARY FIBER” (UNIVERSITY OF SHANGHAI FOR SCIENCE AND TECHNOLOGY, priority 2020, published 2025).
Marks after values point to notes of the source that are not given here.

What was measured:
[1] = system: mice fed with high-fat feed; test: Lipid-lowering function test (animal test): serum lipids (HDL-C, LDL-C) of mice on high-fat feed; type: in vivo, C57BL/6 mice; conditions: gavage, 8 weeks
Description: Samples: The water-insoluble dietary fiber component ACA-DK of Antrodia cinnamomea, which is prepared as a suspension of a certain concentration and placed at 4° C. for further use.
Test animals: 40 C57BL/6 SPF-grade mice weighing 18-22 g were purchased from Shanghai JieSijie Experimental Animal Co., Ltd. (license No. SCXK20180004). They were randomly divided into 4 groups with 10 mice in each group.
Test method: In test environment, the mice were divided into the following 4 groups: Normal group NG (gavage with normal saline), model group MG (high-fat diet), positive control group PG (gavage with lovastatin) and insoluble dietary fiber group LG. Mice in normal group NG were fed with basic feed, and mice in the rest of the groups were fed with high-fat feed. For mice in insoluble dietary fiber group LG, gavage with the dietary fiber was administered once a day for 8 weeks.
Feeding conditions: Mice were raised in an IVC system with a temperature of 18-22° C. and a relative humidity of 40-70%. License No. of the laboratory animal using license is SCXK20180004. The irradiated sterile feed for mice was purchased from Jiangsu Synergy Pharmaceutical Bioengineering Co., Ltd.
Basic feed: Flour 20%, bran 25%, corn 20%, rice flour 10%, soybean meal 20%, fish meal 2%, bone meal 2%, salt 0.9%, vitamin 0.1%;
High-fat feed: Lard 10%, sucrose 5%, cholesterol 1%, bile salt 0.3%, basic feed 83.7%. […]

[2] = system: mice fed with high-fat feed; test: Lipid-lowering function test (animal test): TG and TC of mice on high-fat feed; type: in vivo, C57BL/6 mice; conditions: gavage, 8 weeks
Description: SPSS 22.0 Software was used to statistically analyze the original data of each experiment, and the ANOVA program was used to test the significance of the data.

`CC[C@H](C)C(=O)O[C@H]1C[C@@H](C)C=C2C=C[C@H](C)[C@H](CC[C@@H]3C[C@@H](O)CC(=O)O3)[C@H]21` [lovastatin] was tested, and the HDL-C [1] was 2.45 ± 0.20 ^D mmol/L, the LDL-C [1] was 7.73 ± 3.07 ^b mmol/L and the TC [2] was 0.024 ± 0.005 ^a mmol/g prot. For the same compound, the TG [2] was 0.031 ± 0.019 ^B mmol/g prot.
